The nature of one data set: Colour of the compound. Format: physicochemical. Conditions: powder.
The nature of data set [1]: Solubility in HPbCD 7% pH 5. Format: physicochemical. The conditions noted are these: HPbCD 7% solution, aqueous with cosolvent or surfactant or cyclodextrin, read-out: Solubility HPbCD 7% pH 5 (mg/ml) measured.
A further data set deals with Src/Lyn (h) (Homo sapiens, UniProt P12931). Description: In vitro potency Src/Lyn (h), Table 2. It counts as biochemical.
Data set [2] is described as follows: Ussing chamber permeation study through rabbit cornea. Format: in vitro ADME. Conditions: 37° C., 0.5 cm2 rabbit cornea. The method, then: Ussing chambers were used for the permeation study each day of experiment.
3 mL of solution were placed in donor side of Ussing chambers and 3 mL of Ringer solution were in receiver side. Freshly removed rabbit corneal tissue were placed between the two half chambers.
Temperature was maintained at 37° C. during all the flux study and oxygenation was provided by a continuous perfusion of carbogen (oxygen/carbonic acid) (95/5),
Rabbits were euthanized and the 6 corneas were removed and used immediately. 500 μL of receptor side liquid were removed from Ussing chambers and replaced by fresh buffer. The samples were analyzed immediately (less than 10 hours after collection).
100 μL of donor side liquid were removed from Ussing chambers and not replaced. The samples were diluted immediately (less than 1 hour) after collection and analyzed less than 10 hours after dilution. Analysis was performed on HPLC (Stationary phase: C18 (Particle size: 3 μm Length: 5 cm, using a gradient from 5 to 95% ACN/water (0.1% formic acid)).
At the end of the sampling period, all corneas were discarded.

Another data set deals with h Src (Homo sapiens, UniProt P12931). In words: LC3000 Src assay (off-chip incubation mobility-shift kinase assay, Caliper LabChip). Format: biochemical. The conditions noted are these: ATP at KM apparent. On the procedure:
The screening and profiling experiments described here were performed using Caliper Life Sciences' proprietary LabChip™ technology. Caliper LC3000 and EZ Reader II instruments are widely used throughout the drug discovery process for assay development, primary screening, selectivity screening, generation of Structure-Activity Relationships (SARs) and Mechanism of Action (MOA) studies. The LabChip™ technology is particularly well suited for enzymatic ‘targets’ such as kinases, proteases, phosphatases, histone deacetylases (HDAC), phosphodiesterases (PDE), and acyl-transferases. The key benefit of the technology is the separation and direct measurement of substrates and products, which allows for higher signal-to-noise ratios and fewer false positive/negative results. This direct measurement also allows for the identification and elimination of enzymatic activities that are not associated with the kinase reaction of interest.
The off-chip incubation mobility-shift kinase assay uses a microfluidic chip to measure the conversion of a fluorescent peptide substrate to a phosphorylated product. The reaction mixture, from a microtiter plate well, is introduced through a capillary sipper onto the chip, where the nonphosphorylated substrate and phosphorylated product are separated by electrophoresis and detected via laser-induced fluorescence. […] The phosphorylated product migrates through the chip faster than the non-phosphorylated substrate, and signals from the two forms of the peptide appear as distinct peaks. Caliper's data analysis software (HTSWA) determines peak heights, from which the ratio of product to the peak sum P/(P+S) and percent (%) conversion is calculated. This value is used to compare compound wells to control wells present on the plate, and thereby determine the % inhibition values for the compound. The formula used to calculate % inhibition is as follows, where C100% is the average % conversion of the 100% activity wells and C0% is the average % conversion of the 0% activity wells:
(1-(%conversionofsample—C0%)/(C100%−C0%))*100
Compounds were dissolved in 100% DMSO and diluted to 25× the final desired screening concentration. Serial dilutions were performed to obtain the concentrations specified for particular studies. One μl of each concentration was transferred, in duplicate, to a 384-well Greiner microtiter plate. Generally, 12 μL of enzyme buffer containing purified kinase (various suppliers), 100 mM HEPES, pH 7.5, 1 mM DTT (Calbiochem, 2333153), 10 mM MgCl2 (Sigma, M-1028) or 10 mM MnCl2 (Sigma, M-1787) (assay specific), and 0.002% Brij-35 (Sigma, B4184) was added to each well. Compound and enzyme were allowed to pre-incubate for 15 minutes. 12 μL of peptide/ATP buffer containing 100 mM HEPES, pH 7.5, 1.5 μM fluorescein-labeled peptide (specific to kinase of interest), ATP (at KM apparent, Sigma, A9187), and 0.002% Brij-35 was then added to each well to initiate the reaction. Generally, reactions were incubated for 1-1.5 hours at room temperature to obtain adequate (15-40%) conversion of peptide to phosphorylated product in the linear range of the reaction. Reactions were terminated with the addition of 45 μL of Stop Buffer (containing 20 mM EDTA). Plates were then read on the LabChip 3000 using a 12-sipper LabChip. % conversion values and % inhibition values were obtained as described and IC50 curves of compounds were generated using Graphpad Prism Version 4 or 5.01. A nonlinear curve fit using the sigmoidal dose response—variable slope fit was used to graph IC50 curves and determine IC50 values and hillslopes.

In brackets after ≈: the same amount, converted by molar mass.

Src/Lyn (h), sequence (P12931 whole entry): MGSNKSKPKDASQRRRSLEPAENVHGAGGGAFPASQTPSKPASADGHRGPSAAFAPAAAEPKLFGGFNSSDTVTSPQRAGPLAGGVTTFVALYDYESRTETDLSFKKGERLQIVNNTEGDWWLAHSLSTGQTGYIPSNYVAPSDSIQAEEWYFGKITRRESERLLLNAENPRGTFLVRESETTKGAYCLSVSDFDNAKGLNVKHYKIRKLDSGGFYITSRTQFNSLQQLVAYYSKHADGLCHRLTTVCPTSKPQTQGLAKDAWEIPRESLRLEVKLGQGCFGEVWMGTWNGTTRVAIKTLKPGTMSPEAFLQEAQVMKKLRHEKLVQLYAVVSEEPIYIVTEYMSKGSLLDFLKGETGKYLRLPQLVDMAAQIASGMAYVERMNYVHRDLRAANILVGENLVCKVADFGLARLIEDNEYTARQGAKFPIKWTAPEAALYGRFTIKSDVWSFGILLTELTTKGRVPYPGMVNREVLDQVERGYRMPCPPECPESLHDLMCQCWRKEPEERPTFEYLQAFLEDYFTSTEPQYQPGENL
h Src, sequence (P12931 whole entry): as above

`OCc1cc(CO)cc(Nc2ncc3cc(-c4cc(O)ccc4Cl)ccc3n2)c1` [compound 16, 3-[2-(3,5-Bis-hydroxymethyl-phenylamino)-quinazolin-6-yl]-4-chloro-phenol]: in “Colour of the compound”, the Colour entry is on record as “Pale”. For the same compound, the solubility in data set [1] came out at 1.2 mg/mL (≈ 2.94 mM). Moreover, the IC50 was less than 1 nM against Src/Lyn (h) and 0.1 nM at h Src. In addition, the “Flux between 2 and 4 hours through 0.5 cm2 of rabbit cornea (μg/h/cm2)” value in data set [2] stood at 17 μg/h/cm2.
`Cc1nc(Nc2nc3ccc(-c4cc(O)ccc4Cl)cn3n2)cc(N2CCN(CCO)CC2)n1` [Compound 27, 4-Chloro-3-(2-{6-[4-(2-hydroxy-ethyl)-piperazin-1-yl]-2-methyl-pyrimidin-4-ylamino}-[1,2,4]triazolo[1,5-a]pyridin-6-yl)-phenol]: in “Colour of the compound”, the Colour result is on record as “White”. The solubility in data set [1] is greater than 10 mg/mL. Further, the concentration for half-maximal inhibition (IC50) against Src/Lyn (h) and on h Src was 83 nM each time. The “Flux between 2 and 4 hours through 0.5 cm2 of rabbit cornea (μg/h/cm2)” value in data set [2] is reported as 19 μg/h/cm2.
Turning to `Cc1cc(Nc2nc3ccc(-c4cc(O)ccc4Cl)cn3n2)cc(N2CCN(CCO)CC2)c1` [Compound 28, 4-Chloro-3-(2-{3-[4-(2-hydroxy-ethyl)-piperazin-1-yl]-5-methyl-phenylamino}-[1,2,4]triazolo[1,5-a]pyridin-6-yl)-phenol], the Colour entry in the data set “Colour of the compound” was “White”. The solubility in data set [1] stood at 7.5 mg/mL (≈ 15.7 mM). The IC50 on Src/Lyn (h) and on h Src was 3 nM throughout. Besides, the “Flux between 2 and 4 hours through 0.5 cm2 of rabbit cornea (μg/h/cm2)” value in data set [2] turned out to be 8 μg/h/cm2.
Turning to `OCCn1cnc2cc(Nc3ncc4cc(-c5cc(O)ccc5Cl)ccc4n3)ccc21` [Compound 45, 4-Chloro-3-{2-[1-(2-hydroxy-ethyl)-1H-benzoimidazol-5-ylamino]-quinazolin-6-yl}-phenol], in “Colour of the compound”, the Colour entry is listed as “Pale”. Further, the solubility in data set [1] was determined as 2.3 mg/mL (≈ 5.33 mM). The IC50 came to 1 nM against Src/Lyn (h) and 0.5 nM on h Src. Further, the “Flux between 2 and 4 hours through 0.5 cm2 of rabbit cornea (μg/h/cm2)” value in data set [2] is reported as 8 μg/h/cm2.
With `OCc1cc(CO)cc(Nc2nc3ccc(-c4cc(O)ccc4Cl)cn3n2)c1` [compound 5, 3-[2-(3,5-Bis-hydroxymethyl-phenylamino)-[1,2,4]triazolo[1,5-a]pyridin-6-yl]-4-chloro-phenol], in “Colour of the compound”, the Colour entry is recorded as “White”. In data set [1], the solubility is 1.3 mg/mL (≈ 3.28 mM). The IC50 against Src/Lyn (h) and at h Src was 5 nM in each case. Also, the “Flux between 2 and 4 hours through 0.5 cm2 of rabbit cornea (μg/h/cm2)” value in data set [2] is given as 13 μg/h/cm2.
Consider `Cc1cc(Nc2ncc3cc(-c4cc(O)ccc4Cl)ccc3n2)cc(N2CCN(CCO)CC2)c1` [Compound 46, 4-Chloro-3-(2-{3-[4-(2-hydroxy-ethyl)-piperazin-1-yl]-5-methyl-phenylamino}-quinazolin-6-yl)-phenol], for which, in “Colour of the compound”, the Colour entry is recorded as “Pale”. Also, the solubility in data set [1] is greater than 10 mg/mL. Besides, the IC50 against Src/Lyn (h) and at h Src was 0.8 nM in each case. In addition, the “Flux between 2 and 4 hours through 0.5 cm2 of rabbit cornea (μg/h/cm2)” value in data set [2] is 13 μg/h/cm2.
Turning to `OCc1cc(Nc2ncc3cc(-c4cc(O)ccc4Cl)ccc3n2)ccn1` [Compound 43, 4-Chloro-3-[2-(2-hydroxymethyl-pyridin-4-ylamino)-quinazolin-6-yl]-phenol], the Colour entry in the data set “Colour of the compound” is listed as “Pale”. For the same compound, the solubility in data set [1] is 1.5 mg/mL (≈ 3.96 mM). Also, the IC50 against Src/Lyn (h) and at h Src was 0.7 nM in each case. Also, in data set [2], the “Flux between 2 and 4 hours through 0.5 cm2 of rabbit cornea (μg/h/cm2)” value was 6 μg/h/cm2.
With `OCc1ccc(Nc2nc3ccc(-c4cc(O)ccc4Cl)cn3n2)cn1` [compound 14, 4-Chloro-3-[2-(6-hydroxymethyl-pyridin-3-ylamino)-[1,2,4]triazolo[1,5-a]pyridin-6-yl]-phenol], the IC50 at h Src was found to be 47 nM.
For `Oc1ccc(Cl)c(-c2ccc3nc(Nc4ccncc4)nn3c2)c1` [compound 1, 4-Chloro-3-[2-(pyridin-4-ylamino)-[1,2,4]triazolo[1,5-a]pyridin-6-yl]-phenol], on h Src, the IC50 amounted to 73 nM.
Same read-out and setting: to `OCc1ccc(Nc2nc3ccc(-c4cc(O)ccc4Cl)cn3n2)cc1CO` [Compound 35, 3-[2-(3,4-Bis-hydroxymethyl-phenylamino)-[1,2,4]triazolo[1,5-a]pyridin-6-yI]-4-chloro-phenol] belongs 34 nM.

Values taken from US20130123271A1, “HETEROCYCLIC COMPOUNDS, THEIR PREPARATION AND THERAPEUTIC APPLICATION” (FOVEA PHARMACEUTICALS, priority 2010, published 2013).
